Measured values: patent publication US20080306155A1, “METHOD FOR TREATING RENAL DISEASE” (priority 2004, published 2008)
“Also recorded” adds a separate entry of the source.

Assays:
[1] = test system: renal ischemia-reperfusion injury in SD rats; test: Renal ischemia-reperfusion injury model (Example 2); format: in vivo, rat; conditions: 30 min ischemia, 24 h reperfusion; for degree of renal I/R injury reflected by rise in plasma creatinine concentration: HET0016 5 mg/kg s.c., WIT003 10 mg/kg s.c., 30 min prior, vs vehicle
Experimental: Renal Ischemia-Reperfusion Injury Model: Experiments were performed in male SD rats anesthetized with pentobarbital (50 mg/kg). The kidneys were exposed via a midline incision and the renal arteries isolated. Adjustable vascular occluders were placed on both the right and left renal arteries to completely occlude blood flow to the kidneys for 30 minutes. After the period of complete renal ischemia, the clamps were removed and the kidneys were reperfused. The surgical incisions were closed with 2-0 silk suture and the animals were allowed to fully recover from anesthesia. Twenty four hours later, the rats were reanesthetized with pentobarbital, and a sample of blood collected from the aorta for measurement of plasma creatinine concentration using an autoanalyzer. The kidneys were collected, fixed in 10% formalin solution, and paraffin sections prepared and stained with H&E to evaluate the degree of tubular necrosis and injury.
Three groups of rats were studied. Group 1 rats were treated with vehicle and served as the control animals. Group 2 rats were treated with HET0016 (5 mg/kg, s.c.) 30 minutes prior to renal ischemia. Group 3 rats were given 5, 14-20-HEDE (WIT003) (10 mg/kg, s.c.) by injection 30 minutes prior to renal ischemia.

[2] = test system: renal I/R injury in SD rats; test: Renal I/R injury model (Example 3): plasma creatinine, tubular injury, TUNEL; format: in vivo, rat; conditions: for histological appearance of tubular injury (H&E, fluorescence microscopy): corticomedullary junction; for effect on plasma creatinine 24 hours following renal I/R injury: HET0016 5 mg/kg s.c., 5,14-20-HEDGE 1 mg/kg s.c.; for plasma creatinine: SD rats, 24 h after 30 min ischemia, s.c. 30 min prior: HET0016 5 mg/kg, 5,14-20-HEDE 10 mg/kg, 5,14-20-HEDGE 1 mg/kg; for area occupied by necrotic tubular epithelium or cast material (tubular injury score): compared to vehicle or HET0016-treated animals
Experimental: Renal I/R Injury Model: Rats were anesthetized with ketamine (50 mg/kg, i.m.) and sodium pentobarbital (50 mg/kg, i.p) and were placed on a heated surgical table to maintain body temperature at 37° C. A midline abdominal incision was made to expose the kidneys, and the renal arteries and veins were bilaterally occluded for 30 minutes using microvascular clamps. The clamps were then removed, the abdominal incision was closed, and the rats were allowed to recover for 24 hours. Rats were then euthanized with sodium pentobarbital (100 mg/kg, i.p.), and blood was collected from the aorta for measurement of plasma creatinine concentration using the Jaffe reaction. Both kidneys were collected for histological analysis.
In addition, the method was repeated on four groups of rats. However, rats were pretreated with a s.c. injection of vehicle or one of three treatments 30 minutes prior to induction of renal ischemia. Group 1 served as the control group and received 1 ml/kg of a vehicle (11% sulfobutyl-•-cyclodextrin in 165 mM mannitol solution, […].); Group 2 received HET0016 (5 mg/kg, s.c.); Group 3 received 5, 14-20-HEDE (10 mg/kg; s.c.); and Group 4 received 5, 14-20-HEDGE (1 mg/kg; s.c.).
Analysis of the degree of tubular injury: The kidneys of rats subjected to renal I/R injury were fixed in 10% formalin and paraffin sections (3•m) were prepared and stained with hematoxylin and eosin. The sections were examined at low power using a 2× objective of an Olympus BHT-2 (Olympus; Center Valley, Pa.) epifluorescent microscope equipped with a 540-nm excitation filter and a 590-nm emission filter. For each specimen, five randomly chosen outer medullary fields were photographed at 100× magnification using a digital color camera and following appropriate thresholding. The percentage of the area containing fluorescent necrotic tubular epithelium or cast material was quantified using Image-Pro Plus image analysis software (version 6.2; Media Cybernetics, Inc.; Bethesda, Md.). TUNEL labeling was also performed to assess the degree of apoptosis following renal LIR injury using an ApopTag Plus In Situ Apoptosis Fluorescein Detection Kit (Chemicon International; Temecula, Calif.) following the manufacturer's protocol. Apoptotic nuclei were visualized at approximately 100× by fluorescence microscopy and quantified using Metamorphi Image Analysis Software (Molecular Devices Corp.; Dowington, Pa.). A total of five fields were analyzed per section, with one section analyzed per animal. Data were expressed as the percentage of TUNEL positive nuclei per total number of DAPI stained cells.

renal I/R injury in rats = test: Renal hemodynamics (laser-Doppler flowmetry, arterial pressure) during and after renal I/R; format: in vivo, rat
Experimental: Assessment of renal hemodynamics: Additional experiments were performed to determine if the renoprotective effect of 5, 14-20-HEDGE on renal I/R injury was associated with changes in renal cortical and medullary hemodynamics. Rats were anesthetized with ketamine (50 mg/kg, i.m.) and Inactin (100 mg/kg, i.p.; Sigma; St. Louis, Mo.). Catheters were placed in the femoral artery for continuous measurement of arterial pressure and in the femoral vein for i.v. infusions. The left kidney was then exposed and placed in a kidney holder and a single-mode optical fiber was implanted 4 mm into the kidney for measurement of MBF by laser-Doppler flowmetry (LDF) as previously described. See, Zou A, et al., J. Hypertens. 13:557-566 (1995). CBF was measured by a second laser-Doppler probe held in static position by a micromanipulator 1 mm above the renal cortex. After surgery and a 30-minute stabilization period, MAP, CBF and MBF were continuously recorded using WinDaq data acquisition software (DATAQ Instruments Inc.; Akron, Ohio) during a 5-minute control period. Baseline MAP, MBF and CBF were determined and then 5, 14-20-HEDGE (1 mg/kg s.c.) or vehicle (1 ml/kg s.c.) were administered. Thirty minutes later, the blood supply to the left kidney was occluded for 45 minutes. MAP, MBF and CBF were recorded during ischemia and for 3 hours following reperfusion.

[3] = Plasma levels of the 20-HETE analogs after s.c. injection (LC/MS); format: in vivo, rat; conditions: rats, 10 mg/kg s.c.; for peak blood levels: 10 mg/kg
Experimental: Measurement of plasma levels of the 20-HETE analogs: A chronic polyvinyl catheter was implanted into the jugular vein and exteriorized at the back of the neck of SD rats several days prior to an experiment. After a three-day recovery period, the rats (n=4 in each group) received a s.c. injection of either 5, 14-20-HEDE (10 mg/kg) or 5, 14-20-HEDGE (10 mg/kg), and blood samples were collected 1, 4, 8 and 24 hours after administration. Plasma levels of 5, 14-20-HEDE and 5, 14-20-HEDGE were measured by liquid chromatography-mass spectrometry (LC/MS) using an Applied Biosystems API 3000 LC/MS/MS (Foster City, Calif.).

isolated glomeruli = test: Albumin permeability (Palb) of isolated glomeruli; format: cell-based, rat; conditions: for increase in Palb produced by TGF-•1 after pretreatment of glomeruli: pretreated with 1 μmol/L for 15 minutes at 37° C., then TGF-•1 10 ng/ml
Experimental: Measurement of Albumin Permeability (Palb): Glomeruli were isolated using the sieving method as previously described in a medium containing 5 g/dl of bovine serum albumin (BSA). See, Sharma R, et al, Kidney Intl. 58:131-136 (2000); and Savin V, et al. J. Am. Soc. Nephrol. 3:1260-1269 (1992). In each experimental condition, Palb was determined from the change in glomerular volume (•V) after exchange of the bath with medium containing 1 g/dl albumin. Palb was calculated as 1−(•Vexperimental/•Vcontrol) where glomeruli from SD rats fed a normal-salt diet were used to provide the control value for each experiment. To verify that lack of •Vs in Dahl S rats were related to changes in Palb rather than to changes in mechanical properties of glomeruli, additional studies were performed in which the glomeruli were exposed to a 5% solution of high molecular weight dextran.
In other experiments, we examined the interaction of TGF-• and 20-HETE on Palb in glomeruli isolated from SD rats and Dahl S rats fed either a LS diet or a HS diet for 4 days. Glomeruli were preincubated with vehicle or TGF-•1 (10 ng/ml) for 15 minutes at 37° C. and changes in Palb were determined. Glomeruli were also pretreated with 5, 14-20-HEDE (WIT003) (1 μmol/L; Taisho Pharmaceutical; Tokyo, Japan) (Alonso-Galicia et al., supra; and Yu et al., supra), for 15 minutes at 37° C. and the Palb response to TGF-• 1 (10 ng/ml) was redetermined. A minimum of 5 glomeruli from each rat were studied, and the experiments were performed using •5 rats per treatment group.

[4] = 1 mg/kg s.c., vs vehicle, listed as 5, 14-20-HEDGE

half-life [3]	peak blood levels [3]	SMILES	degree of renal I/R injury reflected by rise in plasma creatinine concentration [1]	histological appearance of tubular injury (H&E, fluorescence microscopy) ([2]; 24 h after renal I/R)	effect on plasma creatinine 24 hours following renal I/R injury ([2]; vs vehicle)	plasma creatinine [2] [mg/dL]	number of apoptotic nuclei (TUNEL staining) ([2]; 24 h after renal I/R, 1 mg/kg s.c., vs vehicle)	area occupied by necrotic tubular epithelium or cast material (tubular injury score) ([2]; 24 h after renal I/R)	CBF or MBF prior to the induction of renal ischemia (renal I/R injury in rats; 1 mg/kg s.c.)	post-ischemic medullary blood flow (MBF) (renal I/R injury in rats; 1 mg/kg s.c. 30 min before 45 min ischemia, 3 h reperfusion, vs vehicle, listed as 5, 14-20-HEDGE)	mean arterial pressure (MAP) (renal I/R injury in rats; [4])	post-ischemic cortical blood flow (CBF) (renal I/R injury in rats; [4])	Palb after TGF-•1 in glomeruli pretreated with 20-HETE analog (isolated glomeruli; glomeruli from Dahl S rats fed HS diet for 4 days, TGF-•1 10 ng/ml)	Palb, baseline after pretreatment with 20-HETE analog (isolated glomeruli; glomeruli from Dahl S rats fed HS diet for 4 days, before TGF-•1)	baseline Palb after pretreatment of glomeruli (isolated glomeruli; glomeruli pretreated with 1 μmol/L for 15 minutes at 37° C., SD rats)	increase in Palb produced by TGF-•1 after pretreatment of glomeruli (isolated glomeruli; SD rats, listed as 20-HETE analog)	increase in Palb produced by TGF-•1 after pretreatment of glomeruli (isolated glomeruli; SD rats, listed as WIT003)	histological damage to S3 segment of the proximal tubule ([1]; 10 mg/kg s.c., data not shown)	reduction of plasma creatinine ([2]; 10 mg/kg s.c., 24 h after renal I/R, vs vehicle)	area occupied by necrotic tubular epithelium or cast material (tubular injury score) ([2]; 24 h after renal I/R, listed as 5, 14-20-HEDE)
–	–	CCCCc1ccc(N=CNO)c(C)c1 [HET0016, N-hydroxy-N′-(4-butyl-2-methylphenol)-formamidine, reference compound]	significantly greater	Diffuse tubular cell denudation, tubular cell necrosis, intratubular debris and tubular casts were present	significant increase	3.8 ± 0.3	–	–	–	–	–	–	–	–	–	–	–	–	–	–
approximately four	300 ng/ml and approximately 1 μM	O=C(O)CNC(=O)CCC/C=C\CCCCCCC/C=C\CCCCCO [5,14-20-HEDGE, N-[20-hydroxyeicosa-5(Z),14(Z)-dienoyl]glycine]	–	less severe renal injury with only focal tubular necrosis or exfoliation of tubular cells	nearly completely prevent the rise	0.5 ± 0.02	significantly less	less severe renal injury; also recorded: marked reduction	did not have a significant effect	completely prevented the post-ischemic fall in MBF	without altering; also recorded: no effect	without altering; also recorded: no effect	–	–	–	–	–	–	–	–
approximately four	300 ng/ml and approximately 1 μM	O=C(O)CCC/C=C\CCCCCCC/C=C\CCCCCO [5,14-20-HEDE, 20-hydroxyeicosa-5(Z),14(Z)-dienoic acid]	significantly reduced	less severe renal injury with only focal tubular necrosis or exfoliation of tubular cells	–	1.6 ± 0.3	–	–	–	–	–	–	0.40±0.01	0.25±0.01	reduced	greatly attenuated	opposed	reduced	approximately 50%	less severe renal injury; also recorded: marked reduction
